Measured values as given in patent publication US20240174728A1, “A USE OF A POLYPEPTIDE COMPOUND IN THE PREPARATION OF DRUGS FOR PREVENTING OR TREATING INFLAMMATORY BOWEL DISEASES AND RELATED INTESTINAL FIBROSIS” (Shenzhen Turier Biotech Co., Ltd., priority 2021, published 2024).

Tests used:
[1] = tested on: DSS induced acute intestinal fibrosis model of mouse; test: DSS induced acute intestinal fibrosis model of mouse (Example 2); assay type: in vivo, Balb/c mice; details: 3% DSS Day 1-7, compared with model group; for blue staining area of colon tissues, area ratio of blue collagen fibers to colon tissue in Masson staining (FIG. 4B): #P≤0.05; for content of serum IL-6 (FIG. 7) / content of serum MMP-12 (FIG. 7) / collagenous fiber of colon tissues, Masson stained slice (FIG. 4A) / colon Ly-6g+ cells (neutrophile granulocyte infiltration), immunohistochemical staining (FIG. 6) / colon mucous layer α-SMA protein expression, immunohistochemical staining (FIG. 5): 120 μg/kg s.c. once/day; for content of serum IL-6 (FIG. 7) / content of serum MMP-12 (FIG. 7): 9th day serum, ##P≤0.01
Excerpt: The DSS in this example is purchased from MP Biomedicals (CAS No.: 9011-18-1), and the positive control compound 6-thioguanine (6-TG) is a compound based on prior art and is purchased from Shanghai Aladdin Biochemical Technology Co., Ltd. (CAS No.: 154-42-7).
(§1) After 7 days of adaptive feeding, 114 Balb/c mice of 6-8 weeks age (purchased from Guangdong Medical Laboratory Animal Center, with weight approx. 16-20 g) are subjected to the experiment. Then randomly put the mice into 19 groups, with 6 mice in each group. The groups are normal group, model group, 6-TG group and polypeptide compound groups 1-16.
Model the 19 groups of mice and administer the drug to them for 8 days. In the 8 days, the normal group is given normal drinking water and is given subcutaneous injection of PBS once every day. From Day 1 to Day 7, the model group drinks 3% DSS and is given subcutaneous injection of PBS once every day. On Day 8, 3% DSS is replaced with normal drinking water and subcutaneous injection of PBS is given once. From Day 1 to Day 7, the 6-TG group drinks 3% DSS and is given 2 mg/kg 6-TG by the means of gavage once every day. On Day 8, 3% DSS is replaced with normal drinking water and 2 mg/kg 6-TG is given by the means of gavage once. From Day 1 to Day 7, the polypeptide compound groups 1-16 drink 3% DSS and are given subcutaneous injection of 120 μg/kg polypeptide compounds 1-16 once every day. On Day 8, 3% DSS is replaced with normal drinking water and subcutaneous injection of 120 μg/kg polypeptide compounds 1-16 is given once.
In the drug administration period, the randomly selected polypeptide compound groups 3, 8, 11, 12, 13 and 14 and the normal group, model group and 6-TG group are used for testing, and the body weight, feces consistency and feces OB of the mice are recorded every day. The GraphPad Prism 8.3.0 software is used to plot the data into a diagram. Feces OB is measured by the benzidine method.
On the 9th day, all mice are killed. The serums and colon tissues of the mice are collected. The colon and cecum of the mice are removed together. The colon length is measured. The GraphPad Prism 8.3.0 software is used to plot the data into a diagram.
The serums of the mice from the randomly selected polypeptide compound groups 3, 8, 11, 12, 13 and 14 of the present invention and the normal group and model group are used for cytokine test.
(§2) The colons of the mice from the randomly selected polypeptide compound groups 3, 8, 11, 12, 13 and 14 and the normal group, model group and 6-TG group in the present invention are taken. Approx. 5 mm of intestinal segment is taken from the distal end of each colon and is fixed in 10% formalin. The specimens are fixed, dehydrated, wrapped in paraffin and sliced (5 μm). Then tissue HE staining, Masson staining, α-SMA α-SMA protein immunohistochemical staining and Ly-6g protein immunohistochemical staining are completed.

[2] = tested on: DSS induced chronic intestinal fibrosis model of mouse; test: DSS induced chronic intestinal fibrosis model of mouse (Example 3, three cycles); assay type: in vivo, Balb/c mice; details: 2% DSS 5 days then water 2 weeks, 3 cycles, 120 μg/kg s.c. once/day, compared with model group; for blue staining area of colon tissues, area ratio of blue collagen fibers to colon tissue in Masson staining (FIG. 11B): #P≤0.05, ##P≤0.01; for content of serum IL-6 (FIG. 13) / content of serum MMP-8 (FIG. 13): serum at end of three cycles
Excerpt: as §1
In the whole process, the normal group is given normal drinking water and is given subcutaneous injection PBS once every day. The model group is first given 2% DSS for 5 days and then given normal drinking water for 2 weeks. This is 1 cycle. The cycle is done 3 times. Subcutaneous injection of PBS is given once every day. The 6-TG group is first given 2% DSS for 5 days and then given normal drinking water for 2 weeks. This is 1 cycle. The cycle is done 3 times. 2 mg/kg 6-TG is given by the means of gavage once every day. The polypeptide compound groups 1-16 are first given 2% DSS for 5 days and then given normal drinking water for 2 weeks. This is 1 cycle. The cycle is done 3 times. Subcutaneous injection of 120 μg/kg polypeptide compounds 1-16 is given once every day.
During the administration period, the polypeptide compound groups 3, 8, 11, 12, 13 and 14 and the normal group, model group and 6-TG group are randomly selected, and the body weight, feces consistency and feces OB of the mice are recorded every day. The GraphPad Prism 8.3.0 software is used to plot the data into a diagram.
After completion of the 3rd cycle, the mice are dissected. The serums and colon tissues of the mice are collected. The colon and cecum are removed together. The colon length is measured. The GraphPad Prism 8.3.0 software is used to plot the data into a diagram.
The serums of the mice from the randomly selected polypeptide compound groups 3, 8, 11, 12, 13 and 14 and the normal group and model group of the present invention are used for cytokine test.
as §2, with “normal” for “normal group, model”, “model” for “6-TG”, “Masson” for “Masson staining, α-SMA α-SMA protein immunohistochemical”, “Fibronectin” for “Ly-6g”

[3] = polypeptide 120 μg/kg s.c. or 6-TG 2 mg/kg p.o. once/day, Day 1 to Day 8
[4] = polypeptide 120 μg/kg s.c. or 6-TG 2 mg/kg p.o. once/day

Row | Molecule | body weight (daily conditions, FIG. 2) [1, 3] | loose feces and hematochezia conditions (feces consistency and feces OB scores, FIG. 2) [1, 3] | colon tissue morphology, HE stained slice (FIG. 3) [1, 4] | blue staining area of colon tissues, area ratio of blue collagen fibers to colon tissue in Masson staining (FIG. 4B) [1, 4] | content of serum IL-6 (FIG. 7) [1] | content of serum MMP-12 (FIG. 7) [1] | collagenous fiber of colon tissues, Masson stained slice (FIG. 4A) [1] | colon Ly-6g+ cells (neutrophile granulocyte infiltration), immunohistochemical staining (FIG. 6) [1] | colon mucous layer α-SMA protein expression, immunohistochemical staining (FIG. 5) [1] | collagenous fiber of colon tissues, Masson stained slice (FIG. 11A) [2] | colon mucous layer Fibronectin protein expression, immunohistochemical staining (FIG. 12) [2] | colon tissue morphology, HE stained slice (FIG. 10) [2] | blue staining area of colon tissues, area ratio of blue collagen fibers to colon tissue in Masson staining (FIG. 11B) [2] | content of serum IL-6 (FIG. 13) [2] | content of serum MMP-8 (FIG. 13) [2]
1 | Nc1nc2nc[nH]c2c(=S)[nH]1 [Compound 6-TG, 6-thioguanine, reference compound] | decrease the body weight | noticeably improve the loose feces and hematochezia conditions | relatively improved | not improved | – | – | – | – | – | – | – | – | – | – | –
2 | His-(D-Ser)-Gln-Gly-Thr-Phe-Thr-Ser-Asp-Lys(Gly-Gly-Ser-Gly-Ser-Gly-γGlu-CO(CH2)18-COOH)-Ser-Lys-Tyr-Leu-Glu-Aib-Lys-Ala-Ala-Gln-Asp-Phe-Val-Glu-Trp-Leu-Lys-Ala-Gly-Gly-Pro-Ser-Ser-Gly-Ala-Pro-Pro-Pro-Ser (HXQGTFTSDKSKYLEXKAAQDFVEWLKAGGPSSGAPPPS; D-Ser, Aib, γGlu-C20 diacid lipidation; Compound 13; (2)..(2) X=D-Ser; (10)..(10) A side chain of Lys is linked to -Gly-Gly-Ser-Gly-Ser-Gly-AGlu-CO(CH2)18-COOH; (16)..(16) X=Aib) | – | – | become intact | noticeably decrease | clearly decreases | clearly decreases | noticeably decrease | clearly decrease | clearly decreased | noticeably decrease | clearly decreased | become intact | noticeably decrease | clearly decreases | clearly decreases
3 | His-(D-Ser)-Gln-Gly-Thr-Phe-Thr-Ser-Asp-Lys(Gly-Gly-Ser-Gly-Ser-Gly-γGlu-CO(CH2)18-COOH)-Ser-Lys-Tyr-Leu-Glu-Aib-Lys-Ala-Ala-Gln-Asp-Phe-Val-Glu-Trp-Leu-Lys-Ala-Gly-Gly-Pro-Ser-Ser-Gly-Ala-Pro-Pro-Pro-Ser-NH2 (HXQGTFTSDKSKYLEXKAAQDFVEWLKAGGPSSGAPPPS; D-Ser, Aib, γGlu-C20 diacid lipidation, C-amide; Compound 14; (2)..(2) X=D-Ser; (10)..(10) A side chain of Lys is linked to -Gly-Gly-Ser-Gly-Ser-Gly-AGlu-CO(CH2)18-COOH; (16)..(16) X=Aib) | – | – | become intact | noticeably decrease | clearly decreases | clearly decreases | noticeably decrease | clearly decrease | clearly decreased | noticeably decrease | clearly decreased | become intact | noticeably decrease | clearly decreases | clearly decreases
